Data set [1] can be described thus: Transformed response potentiometric titration of cocaine (ligand) with titrants. The format is binding. Conditions: for Ka: 1 mM MES buffer pH 7.0, mean of n electrodes.
The test system of data set [2] is Cocaine Binding Aptamer (CBA). Nature of the data set: Transformed response potentiometric titration of different ligands with CBA as titrant (cross-reactivity). Conditions: for Ka: Post-EP method, 10^−5 M ligand in 1 mM MES buffer pH 7, CBA as titrant.

The text below walks through data of patent US11614423B2, “Transformed response potentiometric titrations” (UNIVERSITEIT ANTWERPEN, priority 2014, dated 2023).

“25-mer-DNA: randomly chosen non-specific oligonucleotide, likely SEQ ID NO: 2 (DNA AAAATATCATCTTTGGTGTTTCCTA; DNA, backbone and methylation of C not given here)” returned a Ka in data set [1] (Post-EP (PEP) method) of 24000 M⁻¹. In addition, the “specific interaction with cocaine (in words)” value in data set [1] (comparison of titration curves and Ka values) is “little or no specific interaction”.

As to `Clc1ccc([B-](c2ccc(Cl)cc2)(c2ccc(Cl)cc2)c2ccc(Cl)cc2)cc1` [TCPB, tetrakis (4-chlorophenyl)borate], the Ka in data set [1] (Equivalence Point (EP) method) came out at 3e+09 M⁻¹; in data set [1] (Post-EP (PEP) method) it was 9e+09 M⁻¹.

In data set [2], `CN(Cc1cc(Br)cc(Br)c1N)C1CCCCC1` [bromhexine] had a Ka of 570000 M⁻¹.

`CCN(CC)CC(=O)Nc1c(C)cccc1C` [lidocaine]: the Ka in data set [2] is 100000 M⁻¹.

Take `CN1C[C@H](CNC(=O)OCc2ccccc2)C[C@@H]2c3cccc4c3c(cn4C)C[C@H]21` [metergoline]: the Ka in data set [2] is 3.3e+06 M⁻¹. Moreover, in data set [2] (cross-reactivity compared with cocaine), the “interaction with CBA (in words)” value is “better interaction with metergoline than with cocaine”.

What is called Kd is the concentration at which binding is half-saturated. Low values mean higher affinity, high ones lower affinity. As to “CBA: Cocaine Binding Aptamer, sequence SEQ ID NO: 1, 43 bases (DNA ATCTCGGGACGACAGGATTTTCCTCAATGAAGTGGGTCGTCCC; DNA, backbone not given here)”, in data set [1] (Post-EP method, n=6 electrodes), the Kd came to 1100 nM.

B1: CAPBA: Chloramphenicol Binding Aptamer, sequence SEQ ID NO: 3 (nucleic acid)
DNA: AGCAGCACAGAGGTCAGATGACTTCAGTGAGTTGTCCCACGGTCGGCGAGTCGGTGGTAGCCTATGCGTGCTACCGTGAA
modifications: DNA, backbone and methylation of C not given here
Molecule B1 displayed a Ka in data set [1] (Post-EP (PEP) method) of 47000 M⁻¹.
